Data reported in patent publication US20120264735A1 (priority 2009, published 2012).

Molecular target: T1, c-Met kinase (recombinant c-Met) (Homo sapiens, UniProt P08581)
T1 construct: 0.27 nM recombinant c-Met
Assay: In vitro kinase assay I (homogeneous time-resolved fluorescence tyrosine kinase assay)
Type: biochemical
Procedure, shortened: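 Biotinylated peptide (0.5 μM) phosphorylated by 0.2 nM recombinant c-Met with 50 μM MgATP, 60 min at room temperature, pH 7.4, 5% DMSO. EDTA stop; HTRF read with Eu-anti-phosphotyrosine antibody and streptavidin-APC. IC50 from 4-parameter logistic fit.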

T1 sequence (P08581 25-1390): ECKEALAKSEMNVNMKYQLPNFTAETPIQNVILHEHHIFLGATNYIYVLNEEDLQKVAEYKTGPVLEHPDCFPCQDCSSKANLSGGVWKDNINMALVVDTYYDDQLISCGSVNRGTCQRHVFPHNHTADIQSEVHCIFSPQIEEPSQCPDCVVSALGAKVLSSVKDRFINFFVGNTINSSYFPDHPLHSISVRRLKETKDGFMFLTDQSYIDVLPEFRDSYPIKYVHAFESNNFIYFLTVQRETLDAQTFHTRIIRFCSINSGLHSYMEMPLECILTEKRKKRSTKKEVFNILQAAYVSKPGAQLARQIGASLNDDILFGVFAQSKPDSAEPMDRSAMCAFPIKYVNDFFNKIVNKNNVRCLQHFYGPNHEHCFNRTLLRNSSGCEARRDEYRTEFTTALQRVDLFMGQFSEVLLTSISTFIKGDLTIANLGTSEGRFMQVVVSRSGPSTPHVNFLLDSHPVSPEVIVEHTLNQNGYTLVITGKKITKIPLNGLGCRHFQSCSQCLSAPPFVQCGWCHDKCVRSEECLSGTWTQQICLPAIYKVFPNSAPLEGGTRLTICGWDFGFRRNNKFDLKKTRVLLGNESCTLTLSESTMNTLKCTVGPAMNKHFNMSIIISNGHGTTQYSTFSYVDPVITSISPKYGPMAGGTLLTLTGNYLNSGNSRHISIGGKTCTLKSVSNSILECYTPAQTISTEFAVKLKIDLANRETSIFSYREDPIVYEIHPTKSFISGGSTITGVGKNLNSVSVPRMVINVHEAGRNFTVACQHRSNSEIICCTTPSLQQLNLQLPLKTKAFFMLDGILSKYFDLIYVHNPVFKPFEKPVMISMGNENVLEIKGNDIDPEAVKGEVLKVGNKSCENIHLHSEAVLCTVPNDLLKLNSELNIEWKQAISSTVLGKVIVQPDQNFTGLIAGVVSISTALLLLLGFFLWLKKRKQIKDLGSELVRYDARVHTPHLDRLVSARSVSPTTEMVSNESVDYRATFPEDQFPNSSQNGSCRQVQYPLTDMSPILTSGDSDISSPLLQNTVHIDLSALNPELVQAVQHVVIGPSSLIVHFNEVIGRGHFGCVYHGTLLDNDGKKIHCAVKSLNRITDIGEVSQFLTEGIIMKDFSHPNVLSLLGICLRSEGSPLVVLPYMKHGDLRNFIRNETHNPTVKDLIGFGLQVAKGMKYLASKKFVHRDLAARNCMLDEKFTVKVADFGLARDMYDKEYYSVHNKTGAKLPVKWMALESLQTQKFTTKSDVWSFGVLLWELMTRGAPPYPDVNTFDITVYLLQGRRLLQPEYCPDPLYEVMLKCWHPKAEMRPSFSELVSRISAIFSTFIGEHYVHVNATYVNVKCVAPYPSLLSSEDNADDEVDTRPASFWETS

IC50 [nM] | SMILES
100 to 1000 | CCOCCn1cnc(-c2cccc(Cc3nn(-c4cnn(C)c4)ccc3=O)c2)n1 [Example 716, 3-{3-[1-(2-ethoxyethyl)-1H-1,2,4-triazol-3-yl]benzyl}-1-(1-methyl-1H-pyrazol-4-yl)pyridazin 4(1H)-one]
< 100 | CCOc1cnc(-c2cccc(Cc3nn(-c4ccc(C(=O)NCC(C)(C)O)c(F)c4)ccc3=O)c2)nc1 [Example 724, 4-{3-[3-(5-ethoxypyrimidin-2-yl)benzyl]-4-oxopyridazin-fluoro-N-(2-1(4H)-yl}-2-hydroxy-2-methylpropyl) benzamide]
100 to 1000 | CCOc1cnc(-c2cccc(Cc3nn(-c4cccc(C(=O)N(C)C)c4)ccc3=O)c2)nc1 [Example 726, 3-{3-[3-(5-Ethoxypyrimidin-2-yl)benzyl]-4-oxopyridazin-1(4H)-yl}-N,N-dimethylbenzamide]
< 100 | CC(C)COC(=O)Nc1cccc(Cc2nn(-c3ccc(-c4ccncc4)cc3)ccc2=O)c1 [Example 728, 2-methylpropyl (3-({4-oxo-1-(4-(pyridin-4-yl)phenyl)-1,4-dihydropyridazin-3-yl}methyl}phenyl) carbamate]
100 to 1000 | CC(C)COC(=O)Nc1cccc(Cc2nn(-c3ccc(-c4cnn(C)c4)cc3)ccc2=O)c1 [Example 732, 2-methylpropyl [3-({1-[4-(1-methyl-1H-pyrazol-4-yl)phenyl]-4-oxo-1,4-dihydropyridazin-3-yl}methyl)phenyl] carbamate]
< 100 | COc1cnc(-c2cccc(Cc3nn(-c4cncc(C#N)c4)ccc3=O)c2)nc1 [Example 733, 5-{3-[3-(5-Methoxypyrimidin-2-yl)benzyl]-4-oxopyridazin-1(4h)-yl}pyridine-3-carbonitrile]
< 100 | CCn1cnc(-c2cccc(Cc3nn(-c4cccc(C(N)=O)c4)ccc3=O)c2)n1 [Example 734, 3-{3-[3-(1-Ethyl-1H-1,2,4-triazol-3-yl)benzyl]-4-oxopyridazin-1(4H)-yl}benzamide]
< 100 | CCOc1cnc(-c2cccc(Cc3nn(-c4cccc(C(N)=O)c4)ccc3=O)c2)nc1 [Example 736, 3-[3-[3-(5-ethoxypyrimidin-2-yl)benzyl]-4-oxopyridazin-1(4H)-yl]benzamide]
< 100 | CCCc1nc(-c2cccc(Cc3nn(-c4cnn(C)c4)ccc3=O)c2)no1 [Example 740, 1-(1-methyl-1H-pyrazol-4-yl)-3-[3-(5-propyl-1,2,4-oxadiazol-3-yl)benzyl]pyridazin-4(1H)-one]
100 to 1000 | CCCCc1nc(-c2cccc(Cc3nn(-c4cnn(C)c4)ccc3=O)c2)no1 [Example 741, 3-[3-(5-butyl-1,2,4-oxadiazol-3-yl)benzyl]-1-(1-methyl-1H-pyrazol-4-yl)pyridazin 4(1H)-one]
100 to 1000 | Cn1cc(-n2ccc(=O)c(Cc3cccc(-c4noc(CN5CCOCC5)n4)c3)n2)cn1 [Example 743, 1-(1-methyl-1H-pyrazol-4-yl)-3{3-[5-(morpholin-4-ylmethyl)-1,2,4-oxadiazol-3-yl]benzyl}pyridazin-4(1H)-one]
100 to 1000 | COCCc1nc(-c2cccc(Cc3nn(-c4cnn(C)c4)ccc3=O)c2)no1 [Example 744, 3-{3-[5-(2-methoxyethyl)-1,2,4-oxadiazol-3-yl]benzyl}-1-(1-methyl-1H-pyrazol-4-yl)pyridazin-4(1H)-one]
100 to 1000 | Cn1cc(-n2ccc(=O)c(Cc3cccc(-c4noc(CC5CCOCC5)n4)c3)n2)cn1 [Example 746]
< 100 | Cn1cc(-n2ccc(=O)c(Cc3cccc(-c4ncc(O[C@H]5CC[C@@H](O)CC5)cn4)c3)n2)cn1 [Example 748, 3-(3-{5-[(cis-4-hydroxycyclohexyl)oxy]pyrimidin-2-yl}benzyl)-1-(1-methyl-1H-pyrazol-4-yl)pyridazin-4(1H)-one]
< 100 | COCCOc1cnc(-c2cccc(Cc3nn(-c4cnn(C)c4F)cc(F)c3=O)c2)nc1 [Example 751, 5-Fluoro-1-(5-fluoro-1-methyl-1H-pyrazol-4-yl)-3-{3-[5-(2-methoxyethoxy)pyrimidin-2-yl]benzyl}pyridazin-4(1h)-one]
< 100 | CCCn1cnc(-c2cccc(Cc3nn(-c4cnn(CCO)c4)ccc3=O)c2)n1 [compound 192, 1-[1-(2-hydroxyethyl)-1H-pyrazol-4-yl]-3-[3-(1-propyl-1H-1,2,4-triazol-3-yl)benzyl]pyridazin-4(1H)-one]

The next lines start with the compound.

SMILES | IC50 [nM]
Cn1cc(-n2ccc(=O)c(Cc3cccc(-c4ncn(CCN5CCCC5=O)n4)c3)n2)cn1 [Example 718] | 100 to 1000
COC(C)(C)Cn1cnc(-c2cccc(Cc3nn(-c4cnn(C)c4)ccc3=O)c2)n1 [Example 719, 3-{3-[1-(2-methoxy-2-methylpropyl)-1H-1,2,4-triazol-3-yl]benzyl}-1-(1-methyl-1H-pyrazol-4-yl)pyridazin-4(1H)-one] | < 100
Cn1cc(-n2ccc(=O)c(Cc3cccc(-c4ncn(CCCC5OCC(C)(C)CO5)n4)c3)n2)cn1 [Example 720, 3-(3-{1-[3-(5,5-dimethyl-1,3-dioxan-2-yl)propyl]-1H-1,2,4-triazol-3-yl}benzyl)-1-(1-methyl-1H-pyrazol-4-yl)pyridazin-4(1H)-one] | < 100
CCOc1cnc(-c2cccc(Cc3nn(-c4ccc(C(=O)NCCO)c(F)c4)ccc3=O)c2)nc1 [Example 722, 4-{3-[3-(5-Ethoxypyrimidin-2-yl)benzyl]-4-oxopyridazin-1(4H)-yl}-2-fluoro-N-(2-hydroxyethyl)benzamide] | < 100
CCOc1cnc(-c2cccc(Cc3nn(-c4ccc(C(=O)NC)c(F)c4)ccc3=O)c2)nc1 [Example 723] | < 100
CCOc1cnc(-c2cccc(Cc3nn(-c4cccc(F)c4)ccc3=O)c2)nc1 [Example 725, 3-(3-(5-Ethoxypyrimidin-2-yl)benzyl)-1-(3-fluorophenyl)pyridazin-4(1H)-one] | < 100
CC(C)COC(=O)Nc1cccc(Cc2nn(-c3ccc(-c4cccnc4)cc3)ccc2=O)c1 [Example 727, 2-Methylpropyl[3-({4-oxo-1-[4-(pyridin-3-yl)phenyl]-1,4-dihydropyridazin-3-yl}methyl)phenyl]carbamate] | < 100
CC(C)COC(=O)Nc1cccc(Cc2nn(-c3cccc(-c4cnn(C)c4)c3)ccc2=O)c1 [Example 729, 2-methylpropyl [3-({1-[3-(1-methyl-1H-pyrazol-4-yl)phenyl]-4-oxo-1,4-dihydropyridazin-3-yl}methyl)phenyl] carbamate] | 100 to 1000
CC(C)COC(=O)Nc1cccc(Cc2nn(-c3cccc(-c4ccncc4)c3)ccc2=O)c1 [Example 730, 2-methylpropyl (3-{[4-oxo-1-(3-pyridin-4-ylphenyl)-1,4-dihydropyridazin-3-yl]methyl}phenyl) carbarnate] | 100 to 1000
CC(C)COC(=O)Nc1cccc(Cc2nn(-c3ccc(-c4cn[nH]c4)cc3)ccc2=O)c1 [Example 731, 2-methylpropyl [3-({4-oxo-1-[4-(1H-pyrazol-4-yl)phenyl]-1,4-dihydropyridazin-3-yl}methyl)phenyl] carbamate] | < 100
CCCn1cnc(-c2cccc(Cc3nn(-c4cccc(C(N)=O)c4)ccc3=O)c2)n1 [Example 735, 3-{4-oxo-3-[3-(1-propyl-1H-1,2,4-triazol-3-yl)benzyl]pyridazin-1(4H)-yl}benzamide] | 100 to 1000
COCCOC(=O)Nc1cccc(Cc2nn(-c3cc(F)cc(C(N)=O)c3)ccc2=O)c1 [Example 737, 2-methoxyethyl [3-({1-[3-(aminocarbonyl)-5-fluorophenyl]-4-oxo-1,4-dihydropyridazin-3-yl}methyl)phenyl] carbamate] | < 100
CCc1nc(-c2cccc(Cc3nn(-c4cnn(C)c4)ccc3=O)c2)no1 [Example 739, 3-[3-(5-Ethyl-1,2,4-oxadiazole-3-yl)benzyl]-1-(1-methyl-1H-pyrazol-4-yl)pyridazin-4(1H)-one] | < 100
CC(C)Cc1nc(-c2cccc(Cc3nn(-c4cnn(C)c4)ccc3=O)c2)no1 [Example 742, 3-{3-[5-(2-methylpropyl)-1,2,4-oxadiazol-3-yl]benzyl}-1-(1-methyl-1H-pyrazol-4-yl)pyridazin-4(1H)-one] | 100 to 1000
Cn1cc(-n2ccc(=O)c(Cc3cccc(-c4noc(CC5COC5)n4)c3)n2)cn1 [Example 745, 1-(1-methyl-1H-pyrazol-4-yl)-3-{3-[5-(oxetan-3-ylmethyl)-1,2,4-oxadiazol-3-yl]benzyl}pyridazin-4(1H)-one] | 100 to 1000
Cn1cc(-n2ccc(=O)c(Cc3cccc(-c4ncc(O[C@H]5CC[C@H](O)CC5)cn4)c3)n2)cn1 [Example 747, 3-(3-{5-[(trans-4-hydroxycyclohexyl)oxy]pyrimidin-2-yl}benzyl)-1-(1-methyl-1H-pyrazol-4-yl)pyridazin-4(1H)-one] | < 100
COCCOc1cnc(-c2cccc(Cc3nn(-c4cnn(C)c4)cc(C)c3=O)c2)nc1 [Example 750, 3-{3-[5-(2-Methoxyethoxy)pyrimidin-2-yl]benzyl}-5-methyl-1-(1-methyl-1H-pyrazol-4-yl)pyridazin-4(1H)-one] | < 100
O=c1ccn(-c2ccc(Cl)cc2)nc1Cc1ccc(O)cc1 [Example 754, 1-(4-Chlorophenyl)-3-(4-hydroxybenzyl)pyridazin-4(1H)-one] | 100 to 1000
CCOc1cnc(-c2cccc(Oc3nn(-c4cnn(C)c4)ccc3=O)c2)nc1 [Example 755, 3-[3-(5-Ethoxypyrimidin-2-yl)phenoxy]-1-(1-methyl-1H-pyrazol-4-yl)pyridazin-4(1H)-one] | 1000 to 3000
CCOc1cnc(-c2cccc(Sc3nn(-c4cnn(C)c4)ccc3=O)c2)nc1 [Example 756, 3-{[3-(5-Ethoxypyrimidin-2-yl)phenyl]sulfanyl}-1-(1-methyl-1H-pyrazol-4-yl)pyridazin-4(1H)-one] | 1000 to 3000
O=c1ccn(-c2cc(F)cc(F)c2)nc1Cc1cccc(-c2ncc(O)cn2)c1 [compound 189, 1-(3,5-difluorophenyl)-3-[3-(5-hydroxypyrimidin-2-yl)benzyl]pyridazin-4(1H)-one] | 100 to 1000
